Test results reported in ChEMBL document CHEMBL1201862, “PubChem BioAssay data set” (2004).
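Step 1: Grow cells in 96-well plates. Step 2: Expose to compound for 48 hours at 5 concentrations. Step 3: Interpolate endpoints linearly; if unreached, use highest concentration. The concentration for 50% growth inhibition is given as GI50.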 The source made the active and inactive calls. No stated cut-off is given here; in the data, active = GI50 up to about 1.1 µM and inactive = higher.

Key:
Assay in all cases: growth of human tumour cells (NCI), 48 h
[1] = test system: BT-549
[2] = test system: UACC-62
[3] = test system: SF-539
[4] = test system: MDA-MB-435
[5] = test system: SK-MEL-2
[6] = test system: MDA-MB-231
[7] = test system: ACHN
[8] = test system: RXF 393
[9] = test system: SNB-19
[10] = test system: LOX IMVI
[11] = test system: DU-145
[12] = test system: KM12
[13] = test system: OVCAR-3
[14] = test system: SK-OV-3
[15] = test system: NCI/ADR-RES
[16] = test system: CAKI-1
[17] = test system: HOP-62
[18] = test system: COLO 205
[19] = test system: OVCAR-4
[20] = test system: EKVX

| Compound | GI50 [1] | GI50 [2] | GI50 [3] | GI50 [4] | GI50 [5] | GI50 [6] | GI50 [7] | GI50 [8] | GI50 [9] | GI50 [10] | GI50 [11] | GI50 [12] | GI50 [13] | GI50 [14] | GI50 [15] | GI50 [16] | GI50 [17] | GI50 [18] | GI50 [19] | GI50 [20] |
| --- | --- | --- | --- | --- | --- | --- | --- | --- | --- | --- | --- | --- | --- | --- | --- | --- | --- | --- | --- | --- |
| C[N+](C)(C)CCN(Cc1cccs1)c1ccccn1 | 47.5 µM (inactive) | > 100 µM (inactive) | > 100 µM (inactive) | > 100 µM (inactive) | > 100 µM (inactive) | > 100 µM (inactive) | > 100 µM (inactive) | > 100 µM (inactive) | > 100 µM (inactive) | > 100 µM (inactive) | > 100 µM (inactive) | > 100 µM (inactive) | 35.7 µM (inactive) | > 100 µM (inactive) | > 100 µM (inactive) | > 100 µM (inactive) | > 100 µM (inactive) | 35.2 µM (inactive) | > 100 µM (inactive) |  |
| O=[N+]([O-])/C(C(Cl)=C(Cl)Cl)=C(\N1CCCCC1)n1nnc2ccccc21 | 23.3 µM (inactive) | 18.6 µM (inactive) | 17.3 µM (inactive) | 31.6 µM (inactive) | 17.1 µM (inactive) | 17.3 µM (inactive) | 19.7 µM (inactive) | 16.3 µM (inactive) | 20.9 µM (inactive) | 16.7 µM (inactive) | 18.7 µM (inactive) | 25.8 µM (inactive) | 17.9 µM (inactive) | 24.9 µM (inactive) | 29.6 µM (inactive) | 15.3 µM (inactive) | 22.2 µM (inactive) | 17.8 µM (inactive) | 47.1 µM (inactive) | 8.47 µM (inactive) |
| Oc1cc(-c2ccccc2)cn2c1nc1ccccc12 | 4.55 µM (inactive) | 0.33 µM (active) | 2.59 µM (inactive) | 0.189 µM (active) | 2.11 µM (inactive) | 0.382 µM (active) | 6.41 µM (inactive) | > 22 µM (inactive) | 3.45 µM (inactive) | 1.12 µM (active) | 4.55 µM (inactive) | 1.5 µM (inactive) | 1.22 µM (inactive) | 1.09 µM (active) | 1.21 µM (inactive) | 2.91 µM (inactive) | 2.4 µM (inactive) | 21.3 µM (inactive) | 4.23 µM (inactive) | > 94.2 µM (inactive) |
| CCCC[C@@H]1CCN2C[C@@H](O)[C@@H](O)[C@@H]2[C@H]1O | > 100 µM (inactive) | > 100 µM (inactive) | > 100 µM (inactive) | > 100 µM (inactive) | > 100 µM (inactive) | > 100 µM (inactive) | > 100 µM (inactive) | > 100 µM (inactive) | > 100 µM (inactive) | > 100 µM (inactive) | > 100 µM (inactive) | > 100 µM (inactive) | > 100 µM (inactive) | > 100 µM (inactive) | > 100 µM (inactive) | > 100 µM (inactive) |  | > 100 µM (inactive) | > 100 µM (inactive) | > 100 µM (inactive) |
| Cc1cc(-c2nc3cccc(O)c3s2)ccc1N | 18.5 µM (inactive) | 16.3 µM (inactive) | 57.4 µM (inactive) | 17.4 µM (inactive) | 34.7 µM (inactive) | 31.3 µM (inactive) | 18.2 µM (inactive) | > 100 µM (inactive) | < 0.01 µM (active) | 26.4 µM (inactive) | > 100 µM (inactive) | 10.3 µM (inactive) | 44.4 µM (inactive) | 52.8 µM (inactive) | 21.1 µM (inactive) | 20.8 µM (inactive) | 27 µM (inactive) | 24.2 µM (inactive) |  | 15.7 µM (inactive) |
| O=c1[nH]nc(-c2ccccc2)n1/N=C\c1ccccc1 | > 100 µM (inactive) | > 100 µM (inactive) | > 100 µM (inactive) | > 100 µM (inactive) | > 100 µM (inactive) | > 100 µM (inactive) | > 100 µM (inactive) | 13.2 µM (inactive) |  | > 100 µM (inactive) | > 100 µM (inactive) | > 100 µM (inactive) | > 100 µM (inactive) |  | > 100 µM (inactive) | > 100 µM (inactive) | > 100 µM (inactive) | > 100 µM (inactive) | > 100 µM (inactive) | > 100 µM (inactive) |
| Nc1ccc2c(c1)CN1C(=O)c3ccccc3C1=N2 [DANIQUIDONE] | > 93.3 µM (inactive) | 32.6 µM (inactive) | 10.3 µM (inactive) | 29.2 µM (inactive) | > 79.8 µM (inactive) | 31.6 µM (inactive) | 14.7 µM (inactive) | 34.4 µM (inactive) | 29 µM (inactive) | 35.7 µM (inactive) | 27.4 µM (inactive) | 50.7 µM (inactive) | 40.9 µM (inactive) |  | 66.1 µM (inactive) | 41.4 µM (inactive) | 9.71 µM (inactive) | 23.3 µM (inactive) | 91.8 µM (inactive) | 51.3 µM (inactive) |
| COCN1C(=O)[C@@H]2C[C@@H](OC/C=C/CBr)CN2C(=O)c2ccccc21 | 26.7 µM (inactive) | 19 µM (inactive) | 17.5 µM (inactive) | 14.9 µM (inactive) | 29.7 µM (inactive) | 17.5 µM (inactive) | 19.9 µM (inactive) | 14 µM (inactive) | 21.3 µM (inactive) | 2.04 µM (inactive) | 19.4 µM (inactive) | 22 µM (inactive) |  | 33.3 µM (inactive) | 26.9 µM (inactive) | 17.4 µM (inactive) | 22.7 µM (inactive) | 15.8 µM (inactive) | 14.6 µM (inactive) | 23 µM (inactive) |
| NNC(=O)c1cc(Cl)ccc1NC(=O)C12CC3CC(CC(C3)C1)C2 | 37.4 µM (inactive) | 24.1 µM (inactive) | 42.1 µM (inactive) | 29.3 µM (inactive) | 37.8 µM (inactive) | 51.2 µM (inactive) | 23.6 µM (inactive) | 37.8 µM (inactive) | 15.6 µM (inactive) | 32 µM (inactive) | 44.8 µM (inactive) | 30.1 µM (inactive) | 25.5 µM (inactive) | 28.7 µM (inactive) | 34.8 µM (inactive) | 24.2 µM (inactive) | 45.6 µM (inactive) | 33.6 µM (inactive) | 21.8 µM (inactive) |  |
| O=C(/C=C(\N=P(c1ccccc1)(c1ccccc1)c1ccccc1)C(F)(F)C(F)(F)C(F)(F)C(F)(F)C(F)(F)C(F)(F)C(F)(F)F)c1ccccc1 | > 100 µM (inactive) | > 100 µM (inactive) | > 100 µM (inactive) | > 100 µM (inactive) | > 100 µM (inactive) | > 10 µM (inactive) | > 100 µM (inactive) | > 100 µM (inactive) | > 100 µM (inactive) | > 100 µM (inactive) | > 100 µM (inactive) | > 100 µM (inactive) | > 100 µM (inactive) | > 100 µM (inactive) | > 100 µM (inactive) | > 100 µM (inactive) | > 100 µM (inactive) | > 100 µM (inactive) | > 100 µM (inactive) |  |
| CN(C)Cc1cc(C(=O)/C=C/c2ccc(O)cc2)cc(CN(C)C)c1O | 79.4 µM (inactive) | 36.6 µM (inactive) | 55 µM (inactive) | 35.4 µM (inactive) | 30.3 µM (inactive) | 25.2 µM (inactive) | 20.9 µM (inactive) | 59.8 µM (inactive) | > 100 µM (inactive) | 29.7 µM (inactive) | 53.6 µM (inactive) | 24.4 µM (inactive) | 18.9 µM (inactive) |  | > 100 µM (inactive) | 28.8 µM (inactive) | 38 µM (inactive) | 19.4 µM (inactive) |  | 70 µM (inactive) |
| CCC(=O)NC(Nc1cccc(F)c1C)(C(F)(F)F)C(F)(F)F | > 100 µM (inactive) | > 100 µM (inactive) | > 100 µM (inactive) | > 100 µM (inactive) | > 100 µM (inactive) | > 100 µM (inactive) | > 100 µM (inactive) | 3.88 µM (inactive) | > 100 µM (inactive) | > 100 µM (inactive) | > 100 µM (inactive) | > 100 µM (inactive) | > 100 µM (inactive) | > 100 µM (inactive) | > 100 µM (inactive) | > 100 µM (inactive) | > 100 µM (inactive) | > 100 µM (inactive) |  | > 100 µM (inactive) |
| NCCCCN(CCCN)C(=O)OCc1ccccc1 | > 100 µM (inactive) | > 100 µM (inactive) | > 100 µM (inactive) | > 100 µM (inactive) | > 100 µM (inactive) | > 100 µM (inactive) | > 100 µM (inactive) | > 100 µM (inactive) | > 100 µM (inactive) |  | > 100 µM (inactive) | > 100 µM (inactive) | > 100 µM (inactive) | > 100 µM (inactive) | > 100 µM (inactive) | > 100 µM (inactive) | > 100 µM (inactive) | > 100 µM (inactive) | > 100 µM (inactive) | > 100 µM (inactive) |
| O=C(Nc1ccc(Cl)cc1)c1cc(S(=O)(=O)N2CCNNC2=O)c(S)cc1Cl | 35.7 µM (inactive) | > 100 µM (inactive) | > 100 µM (inactive) | > 100 µM (inactive) | > 100 µM (inactive) | > 100 µM (inactive) | > 100 µM (inactive) | 17.4 µM (inactive) | > 100 µM (inactive) | > 100 µM (inactive) | > 100 µM (inactive) | > 100 µM (inactive) | > 100 µM (inactive) |  | > 100 µM (inactive) | > 100 µM (inactive) |  | > 100 µM (inactive) | > 100 µM (inactive) | > 100 µM (inactive) |
